Test results reported in article PMC8456958, “Selective Bacterial Targeting and Infection‐Triggered Release of Antibiotic Colistin Conjugates” (Angewandte Chemie (International Ed. in English), 2021).
In brackets after ≈: the same amount, converted by molar mass. Positions of bridges follow the written chain, without caps; N, C: chain ends. Non-standard residues stand in square brackets, D forms with d. Residues, ends and D or L forms follow the SMILES beside them. *: point of attachment. Heptanoyl(6-Me) = CC(C)CCCCC(=O)*; Dab = NCC[C@H](N)C(=O)O

Experiments:
E. coli DSM 1116 = format: cell-based, Escherichia coli; conditions: Table 1; without elastase; broth dilution, T-medium, 5-6 x 10^5 CFU, 37 °C, OD600 readout
Method: min at rt, and blood smears were prepared on microscopy slides that were air-dried in the dark. Phase contrast and fluorescence (485/520 nm) microscopy pictures were captured with a Zeiss Axiovert with a 40× APO 1.4 lens. For quantification of fluorescence, pictures were analyzed by using ImageJ (v1.52).
Outlines were drawn around each cell and circularity, area and mean fluorescence were determined.
In addition, several background readings were taken at empty areas. Total corrected cellular fluorescence (TCCF) = integrated density – (area of selected cell × mean fluorescence of background readings), was calculated for 200 bacteria for each assay.
Determination of antibacterial activities by broth dilution assay […]
External neutrophil elastase was added at 10 mU/ml or 100 mU/ml to each well at the start of incubation, where indicated. […] OD600 was then determined in a microplate reader. […]
Quantification of 1, 6 and 7
To 50 µl samples 50 µl acetic acid were added and the samples were filtered through 10 kDa ultrafiltration columns (Amicon Ultra 0.5 ml, Millipore) by centrifugation for 60 min at 14.000 x g and 4 °C. […] Colistin was quantified on a Q-Trap 6500 HPLC-MS with samples of 5 µl each as described above. […]

E. coli K12 = assay: Infection assay in human plasma (CFU test, PMN/E. coli co-culture); format: cell-based, Escherichia coli; conditions: 10 μM, human blood plasma, bacteria:PMN 16:1, 1 h, 37 °C
Method: Figure 5 Cellular proof of concept for triggered antibiotic release from 6. a) Release of neutrophil elastase (NE) from neutrophil granulocytes. PMN were isolated and suspended in RPMI 1640. For activation, 0.1 μM fMLP was added. The samples were incubated for 1 h at 37 °C, centrifuged to remove cells, and the NE concentration was determined in the supernatant by ELISA. Values normalized to 1×10^6 cells mL^−1. Data are presented as the mean of 4 separate experiments. *p<0.03 compared to unactivated. b) Activity of NE after co‐cultivation of PMN with E. coli K12 in presence of 1 or 6. […] After 1 h colistin concentrations were determined by HPLC–MS. […]
Calculation of results: All samples and standards were measured in duplicate. The standard curve was constructed by plotting the mean absorbance for each standard on the y-axis against the concentration on the x-axis. A linear regression analysis was performed and the results for the samples were calculated. […]
on. […] The plate was incubated in a microplate reader for 60 min at 37 °C with shaking for 5 sec at 50 rpm once per minute.
Every minute readings were taken at 410 nm. For the calculation of the cleavage velocity, the difference in absorbance after an initialization phase at 15 min and a further incubation time of 30 min was used and related to total cleavage of the substrate. The blank was subtracted from the readings. […]

CC(C)CCCCC(=O)N[C@@H](CCN)C(=O)N[C@H](C(=O)N[C@@H](CCN)C(=O)N[C@H]1CCNC(=O)[C@H]([C@@H](C)O)NC(=O)[C@H](CCN)NC(=O)[C@H](CCN)NC(=O)[C@H](CC(C)C)NC(=O)[C@@H](CC(C)C)NC(=O)[C@H](CCN)NC1=O)[C@@H](C)O [Compound 1, colistin B, reference compound] ({Heptanoyl(6-Me)}-[Dab]T[Dab][Dab][Dab][dL]L[Dab][Dab]T; lactam 4-C)
MIC, E. coli DSM 1116 (E. coli DSM 1116): 0.063 µM (≈ 0.0728 µg/mL)
effect on bacterial growth (E. coli K12): abolished growth completely
